One compound from patent US6492381B1, “Tricyclic carbamate compounds useful for inhibition of G-protein function and for treatment of proliferative diseases” (Schering Corp., priority 1993, dated 2002) can be followed below.

Test [1] addresses T1, geranylgeranyl protein transferase (GGPT) I (Rattus norvegicus, UniProt P53610+Q04631).
T1 construct: were partially purified from rat brain by ammonium sulfate fractionation followed by Q-Sepharose; from tissue; host or cells: rat brain
The test is described as follows: In vitro enzyme assay: inhibition of geranylgeranyl protein transferase I. The format is biochemical. From the text:
1. In vitro enzyme assays: Inhibition of farnesyl protein transferase and geranylgeranyl protein transferase.
Both farnesyl protein transferase (FPT) and geranylgeranyl protein transferase (GGPT) I were partially purified from rat brain by ammonium sulfate fractionation followed by Q-Sepharose (Pharmacia, Inc.) anion exchange chromatography essentially as described by Yokoyama et al (Yokoyama, K., et al., (1991). A protein geranylgeranyltransferase from bovine brain: Implications for protein prenylation specificity, Proc. Natl. Acad. Sci USA 88: 5302-5306, the disclosure of which is incorporated herein by reference thereto). Human farnesyl protein transferase was also expressed in E. coli, using cDNA clones encoding both the α and β subunits. The methods used were similar to those published (Omer, C. et al., (1993), Characterization of recombinant human farnesyl protein transferase: Cloning, expression, farnesyl diphosphate binding, and functional homology with yeast prenyl-protein transferase, Biochemistry 32:5167-5176). Human farnesyl protein transferase was partially-purified from the soluble protein fraction of E. coli as described above. the tricyclic farnesyl protein transferase inhibitors disclosed herein inhibited both human and rat enzyme with similar potencies. Two forms of val^12-Ha-Ras protein were prepared as substrates for these enzymes, differing in their carboxy terminal sequence. One form terminated in cysteine-valine-leucine-serine (Ras-CVLS) the other in cystein-valine-leucine-leucine (Ras-CVLL). Ras-CVLS is a substrate for the farnesyl protein transferase while Ras-CVLL is a substrate for geranylgeranyl protein transferase I. The cDNAs encoding these proteins were constructed so that the proteins contain an amino-terminal extension of 6 histidine residues. Both proteins were expressed in Escherichia coli and purified using metal chelate affinity chromatography. The radiolabelled isoprenyl pyrophosphate substrates, [^3H]farnesyl pyrophosphate and [^3H]geranylgeranyl pyrophosphate, were purchased from DuPont/New England Nuclear.
The geranylgeranyl protein transferase I assay was essentially identical to the farnesyl protein transferase assay described above, with two exceptions: [^3H]geranylgeranylpyrophosphate replaced farnesyl pyrophosphate as the isoprenoid donor and Ras-CVLL was the protein acceptor. This is similar to the assay reported by Casey et al (Casey, P. J., et al., (1991), Enzymatic modification of proteins with a geranylgeranyl isoprenoid, Proc. Natl. Acad. Sci, USA 88: 8631-8635, the disclosure of which is incorporated herein by reference thereto).

Test [2] relates to M27 [mouse Lewis lung carcinoma]. The test is described as follows: In vivo anti-tumor study, M27 s.c. tumor. Conditions: po. From the text:
(§1) In Vivo Anti-Tumor Studies
(§2) Tumor cells (5×10^5 to 8×10^6 of M27 [mouse Lewis lung carcinoma], A431 [human epidermal carcinoma] or SW620 [human colon adenocarcinoma (lymph node metastasis)]) are innoculated subcutaneously into the flank of 5-6 week old athymic nu/nu female mice. For the C-f-1 [mouse fibroblast transformed with c-fos oncogene] tumor model, 2 mm^3 tumor fragments are transplanted subcutaneously into the flank of 5-6 week old athymic nu/nu female mice. Tumor bearing animals are selected and randomized when the tumors are established. Animals are treated with vehicle (beta cyclodextran for i.p. or corn oil for p.o.) only or compounds in vehicle twice a day (BID) for 5 (1-5) or 7 (1-7) days per week for 2 (×2) or 4 (×4) weeks. The percent inhibition of tumor growth relative to vehicle controls are determined by tumor measurements.

The subject of test [3] is SW620 [human colon adenocarcinoma (lymph node metastasis)]. Put plainly: In vivo anti-tumor study, SW620 s.c. tumor. Set-up: species or system mouse. To be noted: po.
Excerpt: as §1, §2

Molecules are shown by their SMILES.

With `CCOC(=O)N1CCC(C2(F)c3ccc(Cl)cc3CCc3cccnc32)CC1` (stereo not drawn) [Compound 530.00], the “selective for FPT inhibition (versus GGPT)” value in test [1] (FPT versus GGPT) was “at least 13 fold”. In addition, the “activity against GGPT” value in test [1] (at 49 μM) is “inactive”. In addition, the “average % tumor inhibition” value was determined as 37% in test [2] (M27, 100 MPK, 14/wk, ×4) and 57% in test [3] (SW620, 100 MPK, 10/wk, ×4). In addition, the “% Inhibition (tumor growth relative to vehicle controls)” value in test [2] (M27 s.c. in athymic nu/nu mice, BID, 1-7, × 4) stood at 49%; in test [3] (SW-620 s.c. in athymic nu/nu mice, BID, 1-5, × 4), 73%.
